Source: US8409560B2, “Solid dispersion formulations and methods of use thereof” (Zalicus Pharmaceuticals Ltd., priority 2011, dated 2013)
≈ marks a conversion by molar mass, not a printed value. Where “and” joins values, the source holds several entries; their conditions need not be identical. Equal values may be shown once. Read-outs that look alike come from different tables or passages of the source.

Assays:
[1] = log P of compound 1 (previously determined); type: physicochemical
Source text: (§1) Compound 1 has the following previously determined characteristics: […]

[2] = Fed-fasted pharmacokinetics and relative oral bioavailability of compound 1 HCl salt, micronized formulation (previously determined); conditions: human, in vivo
Source text: The fed-fasted pharmacokinetic data were collected using a “normal fat” meal consisting of toast with 1 pat of butter, a banana, 2% milk, apple juice, and Honey Nut Cheerios®, where the meal has about 501 calories with 99 calories from fat, 346 calories from carbohydrates, and 56 calories from protein; and using a “high fat” meal consisting of 2 eggs fried in butter, 2 strips of bacon, 2 slices of toast with butter, 4 ounces of hash brown potatoes and 8 ounces of whole milk, where the meal has about 1,000 calories with 500-600 calories from fat, 250 calories from carbohydrates, and 150 calories from protein.
The relative oral bioavailability of compound 1 (HCl salt) has been previously determined in various fed and fasted states in a micronized formulation. This micronized formulation included the following for a 100 mg dose in a #1 HPMC (white opaque) capsule: compound 1 HCl micronized (100.00 mg), Lactose Fast Flo® Fast Flo® composed of a spray-dried mixture of crystalline and amorphous lactose monohydrate (184.80 mg); sodium starch glycolate (19.20 mg); polysorbate 80 (14.40 mg); purified water (used as the granulating fluid and was removed during processing) (QS); and magnesium stearate (1.60 mg), where the resultant fill weight was 320.00 mg. […]

[3] = Hygroscopicity of compound 1 free base (previously determined); type: physicochemical; conditions: at 70% relative humidity (RH)
Source text: Compound 1 has the following previously determined characteristics:
(vii) hygroscopicity (for free base): 0.09% at 70% relative humidity (RH);

[4] = Solubility of compound 1 (previously determined); type: physicochemical
Source text: as §1

[5] = Phase I (Group 2) study of HME or SDD formulations in healthy human subjects, fed (standard meal); type: in vivo; conditions: 225 mg HME or SDD oral; for half-life: human, plasma, po, 225 mg
Method: Bioavailability of the ion channel modulator compound 1 was studied in healthy human subjects using SDD and HME formulations, with subjects in a fed state. The effect the SDD or HME formulation on bioavailability following a single oral dose under fed conditions was thereby evaluated and compared. Safety and tolerability of compound 1 was also evaluated.
This study utilized a single-center, single-dose open-label, 2-group, 2-period randomized crossover design to determine bioavailability following treatment with the SDD or HME formulation under fed conditions. A total of 16 subjects were selected by the criteria described in Example 10.
Subjects were treated with an oral dose of 225 mg HME (as described in Example 8, Table 14) or 225 mg SDD (as described in Example 7) with approximately 8 fluid ounces of water in the fed (standard meal) state. Subjects were randomized between HME and SDD formulations in equal numbers during period 1 of the trial, and, following a washout period, assigned to the opposite formulation during period 2. The fed condition is defined as the state of a subject following an overnight fast of at least 10 hours with a test meal provided 30 minutes prior to administration of the study drug. The subject must completely consume their respective meal before being dosed. Meals were standardized and standard meals were served according to a pre-determined schedule throughout the inpatient portion of the study. A standardized meal derived approximately 35% of total caloric content of the meal from fat, approximately 15-20% from protein, and approximately 45-50% from carbohydrates, with a total caloric content of approximately 400-450 calories. An example test meal would have included ⅝ ounces Cheerios®, 1 egg, 1 strip of bacon, 1 slice of toast with margarine, 6 ounces of low fat milk, and 4 ounces of orange juice. The time of food intake before and after study drug administration was documented. Water was allowed as desired except for one hour before and after drug administration. Outside of these restrictions, subjects in both fed and fasted conditions were provided fluid intake according to the subject's individual needs, with documentation. HME and SDD groups were dosed and evaluated simultaneously.
Treatments of 225 mg HME or SDD were administered on day 1 of period 1 of the trial and subjects were admitted to the clinical research unit (CRU) for four days of inpatient evaluation. Subjects were discharged from the CRU upon completion of assessments on day 4, and reported to the CRU for additional pharmacokinetic blood sampling and safety assessment on days 5 and 6, completing period 1. There was a 7-day washout between the first and second period drug administrations. In the second period, subjects were treated with an oral dose of 225 mg HME or 225 mg SDD in the fed (standard meal) state. The treatment was administered on day 1 of period 2 of the trial and subjects were admitted to the clinical research unit (CRU). Subjects were discharged from the CRU upon completion of assessments on day 4, and reported to the CRU for additional and followup pharmacokinetic blood sampling and safety assessment on days 5, 6, 8, 15, 22, 29, and 36 of period 2.
Pharmacokinetic assessments conducted during each treatment period were performed by the collection of venous blood samples via indwelling catheter or direct venipuncture. The plasma concentrations of the drug was determined for each sample. Concentration of the drug was determined using a validated liquid chromatography coupled with tandem mass (LC/MS/MS) assay, with a lower limit of quantitation (LLOQ) of 0.1 ng/mL. Descriptive statistics were calculated for these parameters and tabulated by formulation and period. Safety of the trial subjects was assessed by the following endpoints: adverse events, vital signs, ECG parameters, laboratory parameters, medical history, and physical examination. […]

Q: What does the source list for `O=C(CC(c1ccccc1)c1ccccc1)N1CCN(C(c2ccccc2)c2ccccc2)CC1` [Compound 1, 1-(4-benzhydrylpiperazin-1-yl)-3,3-diphenylpropan-1-one]?
A: logP [1]: 2.6; Tmax [2]: < 2 h; hygroscopicity [3]: 0.09%; solubility in propylene glycol, ethanol, and tetrahydrofuran (in words) [4]: soluble; solubility ([4]; acetone, organic solvent or mixture, read-out: solubility in acetone): ≤ 50000 µg/mL; solubility ([4]; pH 6.5, pH of 6.5 in FaSSIF, read-out: solubility): 1.5 µg/mL (≈ 3.26 µM); solubility in water (in words) ([4]; water): slightly soluble; solubility ([4]; water, pH 1, simulated gastric fluid, pH of 1.0, read-out: solubility in water): 55 µg/mL (≈ 119 µM); solubility ([4]; water, pH 6.5, aqueous buffer, pH of 6.5, read-out: solubility in water): 0.03 µg/mL (≈ 0.0651 µM); solubility ([4]; water, pH 6.8, aqueous buffer, pH of 6.8, read-out: solubility in water): 0.2 to 2 µg/mL (≈ 0.434 to 4.34 µM); Half-Life Period 1 ([5]; period 1, individual subjects): 617 h and 79 h and 75 h and 270 h and 73 h and 115 h and 112 h and 92 h and 94 h and 163 h and 96 h and 114 h and 72 h and 105 h and 77 h; Half-Life Period 2 ([5]; period 2, individual subjects): 104 h and 171 h and 176 h and 417 h and 82 h and 106 h and 149 h and 155 h and 137 h and 400 h and 193 h and 98 h and 71 h and 116 h and 114 h; Half-Life Ratio ([5]; ratio period 1 to period 2, Mean): 73%; Half-Life Ratio ([5]; ratio period 1 to period 2, individual subjects): 76% and 44% and 43% and 65% and 89% and 108% and 75% and 59% and 69% and 41% and 50% and 116% and 101% and 91% and 68%; half-life ([5]; period 1, Mean, read-out: Half-Life Period 1 (converted)): 139 h; half-life ([5]; period 2, Mean, read-out: Half-Life Period 2 (converted)): 166 h
